Tests used:
A2780/CP cells = test: CCK-8 cytotoxicity, A6 plus DDP; format: cell-based, human
Description: Study Conditions. Drugs: […] Drug exposure time: 1 hour; Cell line: […] Media: RPMI 1640 plus 10% FBS containing 1 mM penicillin/streptomycin; Cytotoxicity Assays: CCK-8 (Cell Counting Kit 8-Dojindo Molecular Technologies). Tissue culture plates containing 96-well plates were seeded with 4000 cells in 100 μl of media per well. The wells on rows A-[…] cells, while the wells on rows E-[…]/CP cells. […] After 1 h, increasing concentrations of DDP were added to triplicate wells in 100 μl medium. […] The cells were then allowed to grow for 96 h following which the plates were assayed for relative cell growth with the CCK-8 assay. CCK-8 assay. Five μl of CCK-8 stain was added to each well and the plate was incubated at 37° C. incubator for 4 h. The plate was read with a microplate reader at a wavelength of 450 nm. (See FIGS. 5A-5D and FIG. 6). The assay was performed using triplicate wells for each DDP concentration. The data in the tables below is the optical density in the well which is a function of the number of live cells remaining at the end of the 96 h growth period.

IGROV-1/CP cells = test: CCK-8 cytotoxicity, A6 plus DDP; format: cell-based, human
Description: Study Conditions. Drugs: […] Drug exposure time: 1 hour; Cell line: IGROV-1 and its DDP-resistant subline IGROV-1/CP; Media: RPMI 1640 plus 10% FBS containing 1 mM penicillin/streptomycin; Cytotoxicity Assays: CCK-8 (Cell Counting Kit 8—Dojindo Molecular Technologies). Tissue culture plates containing 96-well plates were seeded with 4000 cells in 100 μl of media per well. The wells on rows A-D were seeded with IGROV-1 cells, while the wells on rows E-H were seeded with IGROV-1/CP cells. […] After 1 h, increasing concentrations of DDP were added to triplicate wells in […] medium. […] The cells were then allowed to grow for 96 h following which the plates were assayed for relative cell growth with the CCK-8 assay. CCK-8 assay. […] of CCK-8 stain was added to each well and the plate was incubated at 37° C. incubator for 4 h. The plate was read with a microplate reader at a wavelength of 450 nm. (See FIGS. 7A-7D and FIG. 8). The assay was performed using triplicate wells for each DDP concentration. The data in the tables below is the optical density in the well which is a function of the number of live cells remaining at the end of the 96 h growth period.

U87MG human glioma cells [1] = test: Intracranial glioma xenograft; format: in vivo, BALB/c (nu/nu) mice
Description: (§1) Glioblastoma: In animal models of glioblastoma, U87MG human glioma cells were implanted subcutaneously or intracranially in BALB/c (nu/nu) mice and the animals were divided into different treatment groups. […] In this study the effects of cisplatin were also examined.

[2] = system: HEY/C2 (DDP resistant) cells; test: CCK-8 cytotoxicity of DDP/PTX with or without A6; format: cell-based; conditions: 72 hours
Description: The cells were plated in 96-well plates as described and incubated overnight. […] The CCK-8 assay described herein was performed to access cytotoxicity of DDP/PTX.

U87MG human glioma cells [3] = test: Subcutaneous glioma xenograft; format: in vivo, BALB/c (nu/nu) mice
Description: as §1

[4] = molecular target: T1, CD44 on B16-F10 melanoma cells (UniProt P15379 23-778); test: cell-based or functional assay
T1 sequence (looked up): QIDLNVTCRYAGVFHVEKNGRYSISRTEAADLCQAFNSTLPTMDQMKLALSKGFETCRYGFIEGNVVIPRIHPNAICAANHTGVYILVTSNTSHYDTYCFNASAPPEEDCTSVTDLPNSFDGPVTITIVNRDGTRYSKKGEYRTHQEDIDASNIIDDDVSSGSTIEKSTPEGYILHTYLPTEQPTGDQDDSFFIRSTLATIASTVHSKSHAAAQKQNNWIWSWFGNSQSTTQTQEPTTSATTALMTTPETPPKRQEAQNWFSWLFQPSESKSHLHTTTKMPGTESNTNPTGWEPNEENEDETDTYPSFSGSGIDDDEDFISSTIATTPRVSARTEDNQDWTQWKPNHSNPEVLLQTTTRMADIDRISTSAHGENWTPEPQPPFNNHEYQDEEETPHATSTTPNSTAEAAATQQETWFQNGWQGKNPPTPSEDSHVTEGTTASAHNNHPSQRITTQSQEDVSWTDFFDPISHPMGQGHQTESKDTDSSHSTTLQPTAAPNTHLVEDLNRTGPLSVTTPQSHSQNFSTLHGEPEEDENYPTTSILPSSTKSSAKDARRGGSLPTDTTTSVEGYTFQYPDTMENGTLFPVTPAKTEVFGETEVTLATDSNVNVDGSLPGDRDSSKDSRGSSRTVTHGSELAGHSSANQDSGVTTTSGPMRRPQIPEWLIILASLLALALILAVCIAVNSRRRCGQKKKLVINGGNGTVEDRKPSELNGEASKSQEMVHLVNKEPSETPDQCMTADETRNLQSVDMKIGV

**Q.** Which results are given for `N.N.[Cl][Pt][Cl]` [cisplatin, reference compound]?
**A.** resistance of the cells to DDP (A2780/CP cells): not very resistant; resistance of the cells to DDP (IGROV-1/CP cells): appeared not to be resistant; inhibition of tumor growth (U87MG human glioma cells [1]): 82%; IC50 in HEY/C2 cells compared to HEY cells [2]: about 7 fold; inhibition of subcutaneous tumor growth (U87MG human glioma cells [3]): 53%

**Q.** `CC(=O)O[C@H]1C(=O)[C@@]2(C)[C@H]([C@H](OC(=O)c3ccccc3)[C@]3(O)C[C@H](OC(=O)[C@H](O)[C@@H](NC(=O)c4ccccc4)c4ccccc4)C(C)=C1C3(C)C)[C@]1(OC(C)=O)CO[C@@H]1C[C@@H]2O` [paclitaxel, reference compound] was tested. Which “resistance of HEY/C2 cells compared to HEY cells” value [2] did it give?
**A.** resisted to paclitaxel

B1: A6 peptide (Ac-KPSSPPEE-NH2) (peptide)
peptide: Ac-KPSSPPEE-NH2
**Q.** How did the “IC50 for A6 inhibition of chemotaxis in B16-F10 cells” value [4] turn out when B1 was run?
**A.** 29 nM
